Experimental findings from ChEMBL document CHEMBL1127883, “Increased antiviral activity of HIV protease inhibitors of the difluorostatone type bearing (R)-valinol derivatives as novel c-termini” (Bioorg Med Chem Lett, 1994) are described below.

pEC50, pIC50, pKi: −log10 of the molar value. Where only a bound is given, the exact number is not on record here.

Experiment [1] concerns the target T1, Human immunodeficiency virus type 1 protease (Human immunodeficiency virus 1, UniProt Q72874). Briefly: Inhibitory activity was determined against HIV-1 protease.
Experiment [2] has as its target Human immunodeficiency virus type 1 protease (Human immunodeficiency virus 1) (UniProt Q72874). Description: Concentration that inhibits cellular growth of MT-4 cells acutely infected with HIV-1 RFstrain by 50%. The format is functional, cell-based. Conditions: MT4.
The nature of experiment [3]: Cytotoxic activity was determined against HIV-1 infected MT-4 cells. The format is functional, cell-based. The note with it: MT4.
Experiment [4] deals with C8166. Briefly: Antiviral activity against HIV-2red in C8166 cell line. The note with it: Homo sapiens, read-out: ED50 (the source's name). Format: functional.
Experiment [5] concerns C8166. Description: Antiviral activity against SIV-mac251 in C8166 cell line. The format is functional. The note with it: Homo sapiens, read-out: ED50 (the source's name).
Experiment [6] concerns C8166. Briefly: Cytotoxic activity against HIV-1 RF in […] cell line. The format is functional. The note with it: Homo sapiens, read-out: CD50 (the source's name).
Experiment [7] has as its system C8166. Briefly: Antiviral activity against HIV-1 RF in […] cell line. The note with it: Homo sapiens, read-out: ED50 (the source's name). Format: functional.
Another experiment has as its system CCRF-CEM. Briefly: Antiviral activity against HIV-1 HIB in CEM cell line. Format: functional. Conditions: Homo sapiens, read-out: ED50 (the source's name).
The test system of experiment [8] is H9. Briefly: Antiviral activity against HIV-1HIB in H9 cell line. Format: functional. The note with it: Homo sapiens, read-out: ED50 (the source's name).
Experiment [9] has as its system H9. Briefly: Antiviral activity against HIV-1MN in H9 cell line. The note with it: Homo sapiens, read-out: ED50 (the source's name). Format: functional.
Another experiment has as its system H938 cell line. Briefly: Antiviral activity against HIV-1CCl protease in H938 cell line. Conditions: Homo sapiens, read-out: ED50 (the source's name). Format: functional.
Experiment [10] addresses T1, Human immunodeficiency virus type 1 protease. Description: Inhibitory activity against HIV-1 protease.
For experiment [11], the system named is JM1. Description: Antiviral activity against HIV-1 QB8F in JM cell line. Format: functional. Conditions: Homo sapiens, read-out: ED50 (the source's name).
Experiment [12] deals with MT4. Description: Antiviral activity against HIV-1 RF in MT-4 cell line. Conditions: Homo sapiens, read-out: ED50 (the source's name). Format: functional.
For experiment [13], the system named is MT4. Description: Cytotoxic activity against HIV-1 in MT-4 cell line. Format: functional. The note with it: Homo sapiens, read-out: CD50 (the source's name).
In experiment [14] the test system is Human immunodeficiency virus 1. Briefly: Antiviral activity against HIV-1 108/F in PBMC 3 cell line. Format: functional. The note with it: Human immunodeficiency virus 1, PBMC; read-out: ED50 (the source's name).
Experiment [15] relates to Human immunodeficiency virus 1. Description: Antiviral activity against HIV-1CC in PBMC cell line; Out of 7 days. The format is functional. The note with it: Human immunodeficiency virus 1, PBMC, 168 h; read-out: ED50 (the source's name).
Experiment [16] relates to Human immunodeficiency virus 1. Briefly: Antiviral activity against HIV-1CCl in PBMC cell line; Out of 21 days. Format: functional. The note with it: Human immunodeficiency virus 1, PBMC, 504 h; read-out: ED50 (the source's name).
In experiment [17] the test system is Human immunodeficiency virus 1. Briefly: Antiviral activity against HIV-1CCL in PBMC 2 cell line; Out of 14 days. Format: functional. The note with it: Human immunodeficiency virus 1, PBMC, 336 h; read-out: ED50 (the source's name).
Experiment [18] has as its system H9. Briefly: Antiviral activity against HIV-1U455 in H9 cell line. The format is functional. Conditions: Homo sapiens, read-out: ED50 (the source's name).
For experiment [19], the system named is JM1. Description: Cytotoxic activity against HIV-1QB8F in JM cell line. The format is functional. Conditions: Homo sapiens, read-out: CD50 (the source's name).

With `CC(C)[C@H](NC(=O)OCc1ccccc1)C(=O)NC(Cc1ccc(OCc2ccccc2)cc1)C(=O)C(F)(F)C(=O)N[C@@H](C(=O)O)C(C)C` (stereo not given in full), in [1], the pIC50 (usually −log10 of the IC50, conventionally taken in molar units) was 8.40. In experiment [2], this compound displayed an ED50 of 50 µM. The compound also gave a CD50 in experiment [3] greater than 100 µM.

`CC(C)(C)NC(=O)[C@@H]1C[C@@H]2CCCC[C@@H]2CN1C[C@@H](O)[C@H](Cc1ccccc1)NC(=O)[C@H](CC(N)=O)NC(=O)c1ccc2ccccc2n1` gave an ED50 in experiment [2] of 0.006 µM. This compound also displayed a CD50 in experiment [3] greater than 10 µM.

On to `CC(C)[C@H](NC(=O)OCc1ccccc1)C(=O)NC(Cc1ccc(OCc2ccccc2)cc1)C(=O)C(F)(F)C(=O)N[C@@H](C(=O)OC(C)(C)C)C(C)C` (stereo not given in full), for which the pIC50 in experiment [1] is 8.22. Besides, the ED50 in experiment [2] was found to be 0.24 µM. The same compound returned a CD50 in experiment [3] of 6 µM.

Turning to `COC(=O)[C@H](NC(=O)C(F)(F)C(=O)C(Cc1ccc(OCc2ccccc2)cc1)NC(=O)[C@@H](NC(=O)OCc1ccccc1)C(C)C)C(C)C` (stereo not given in full), in experiment [1], the pIC50 is greater than 8.00. Moreover, the ED50 in experiment [2] amounted to 0.022 µM. The compound further displayed a CD50 in experiment [3] of 2.6 µM.

Regarding `CC(C)[C@H](COCc1ccccc1)NC(=O)C(F)(F)C(=O)C(Cc1ccc(OCc2ccccc2)cc1)NC(=O)[C@@H](NC(=O)OCc1ccccc1)C(C)C` (stereo not given in full), the pEC50 in the experiment on C8166 [4] was 7.48; in the experiment on C8166 [5], 7.55; with C8166 [7], 8.05; in the experiment with CCRF-CEM it was 7.52; in the experiment with H9 [8] it was 8.05; with H9 [9], 7.92. The pEC50 was 7.31 in the experiment with H938 cell line; 7.80 in the experiment on JM1 [11]; 7.57 with MT4 [12]; 7.46 in [14]; 7.10 in [15]; 7.15 in experiment [16]. The pEC50 in [17] was 7.42; in the experiment on H9 [18], 7.46. The CC50 with C8166 [6] is 25 µM; in the experiment with MT4 [13] it was 25 µM; with JM1 [19], greater than 100 µM. In addition, in experiment [10], the pKi – broadly, the Ki on a negative log10 scale, so that one unit is a factor of ten – is 8.10. Further, in [2], the ED50 turned out to be 0.027 µM. The CD50 in experiment [3] is 100 µM.

As to `Cc1cn([C@H]2C[C@H](N=[N+]=[N-])[C@@H](CO)O2)c(=O)[nH]c1=O`, in experiment [2], the ED50 amounted to 0.06 µM. Also, the CD50 in experiment [3] is greater than 10 µM.

In the case of `CC(C)[C@H](NC(=O)OCc1ccccc1)C(=O)NC(Cc1ccc(OCc2ccccc2)cc1)C(=O)C(F)(F)C(=O)N[C@@H](COCc1ccccc1)c1ccccc1` (stereo not given in full), the pIC50 in experiment [1] was 9.00. In addition, the ED50 in experiment [2] was 0.09 µM. Further, the CD50 in [3] was determined as 23 µM.

As for `CC(C)[C@H](NC(=O)OCc1ccccc1)C(=O)NC(Cc1ccc(OCc2ccccc2)cc1)C(=O)C(F)(F)C(=O)NCc1ccccc1` (stereo not given in full), in experiment [2], the ED50 came out at 0.3 µM. This compound also had a CD50 in [3] greater than 100 µM.

In turn, `CC(C)C(C=O)NC(=O)C(F)(F)C(=O)C(Cc1ccc(OCc2ccccc2)cc1)NC(=O)[C@@H](NC(=O)OCc1ccccc1)C(C)C` (stereo not given in full) had a pIC50 in experiment [1] of 8.40. This compound also gave an ED50 in [2] of 0.018 µM. The CD50 in experiment [3] worked out at 3.2 µM.

Compound `CC(C)C[C@H](COCc1ccccc1)NC(=O)C(F)(F)C(=O)C(Cc1ccc(OCc2ccccc2)cc1)NC(=O)[C@@H](NC(=O)OCc1ccccc1)C(C)C` (stereo not given in full) showed a pIC50 in experiment [1] of 8.74. In addition, the ED50 in experiment [2] came out at 0.2 µM. For the same compound, in experiment [3], the CD50 was determined as 15 µM.

On to `COCCOCCO[C@H](NC(=O)C(F)(F)C(=O)C(Cc1ccc(OCc2ccccc2)cc1)NC(=O)[C@@H](NC(=O)OCc1ccccc1)C(C)C)C(C)C` (stereo not given in full), for which, in experiment [1], the pIC50 was greater than 7.82. Moreover, the ED50 in experiment [2] came to 0.045 µM. This compound also yielded a CD50 in experiment [3] of 2.8 µM.

In the case of `CC(C)[C@H](COCc1ccccc1)NC(=O)C(F)(F)[C@H](O)C(Cc1ccc(OCc2ccccc2)cc1)NC(=O)[C@@H](NC(=O)OCc1ccccc1)C(C)C` (stereo not given in full), in experiment [1], the pIC50 is 8.30. The ED50 in experiment [2] was greater than 100 µM. The CD50 in experiment [3] is greater than 100 µM.

For `CC(C)[C@H](CCc1ccccc1)NC(=O)C(F)(F)C(=O)C(Cc1ccc(OCc2ccccc2)cc1)NC(=O)[C@@H](NC(=O)OCc1ccccc1)C(C)C` (stereo not given in full), in experiment [1], the pIC50 was 7.89. This compound had an ED50 in [2] of 0.24 µM. The CD50 in [3] was determined as 35 µM.

Turning to `CC(C)[C@H](COCc1ccccc1)NC(=O)C(F)(F)C(=O)C(Cc1ccc(OCc2ccccc2)cc1)NC(=O)[C@H](NC(=O)OCc1ccccc1)C(C)C` (stereo not given in full), the pIC50 in experiment [1] was 7.22. In [2], this compound came in with an ED50 greater than 95 µM. This compound also returned a CD50 in experiment [3] of 95 µM.

With `CC(C)[C@@H](COCc1ccccc1)NC(=O)C(F)(F)C(=O)C(Cc1ccc(OCc2ccccc2)cc1)NC(=O)[C@H](NC(=O)OCc1ccccc1)C(C)C` (stereo not given in full), the pIC50 in experiment [1] is 5.70.

For the compound `CO[C@H](NC(=O)C(F)(F)C(=O)C(Cc1ccc(OCc2ccccc2)cc1)NC(=O)[C@@H](NC(=O)OCc1ccccc1)C(C)C)C(C)C` (stereo not given in full), in experiment [1], the pIC50 is greater than 8.00. For the same compound, the ED50 in [2] is less than 0.01 µM. Also, the CD50 in experiment [3] worked out at 8 µM.

In turn, `CC(C)[C@H](COCc1ccccc1)NC(=O)C(F)(F)[C@@H](O)C(Cc1ccc(OCc2ccccc2)cc1)NC(=O)[C@@H](NC(=O)OCc1ccccc1)C(C)C` (stereo not given in full) had a pIC50 in experiment [1] of 8.18. This compound yielded an ED50 in experiment [2] greater than 100 µM. The CD50 in experiment [3] was greater than 100 µM.

Compound `COCCOCO[C@H](NC(=O)C(F)(F)C(=O)C(Cc1ccc(OCc2ccccc2)cc1)NC(=O)[C@@H](NC(=O)OCc1ccccc1)C(C)C)C(C)C` (stereo not given in full) had a negative logarithm of the IC50 (pIC50) in [1] greater than 8.00. In addition, in [2], the ED50 amounted to 0.015 µM. In experiment [3], this compound returned a CD50 of 3.4 µM.

As to `CC(C)NC(=O)C(F)(F)C(=O)C(Cc1ccc(OCc2ccccc2)cc1)NC(=O)[C@@H](NC(=O)OCc1ccccc1)C(C)C` (stereo not given in full), the pIC50 in [1] is 8.30. Also, the ED50 in experiment [2] was found to be 0.32 µM. The compound further showed a CD50 in experiment [3] of 6 µM.

Compound `CC(C)[C@H](NC(=O)OCc1ccccc1)C(=O)NC(Cc1ccc(OCc2ccccc2)cc1)C(=O)C(F)(F)C(=O)N[C@H](COCc1ccccc1)C(C)C` (stereo not given in full) showed a pIC50 in [1] of 7.40. Also, the ED50 in [2] amounted to 0.35 µM. The same compound showed a CD50 in experiment [3] of 35 µM.

The compound `CC(C)CNC(=O)C(F)(F)C(=O)C(Cc1ccc(OCc2ccccc2)cc1)NC(=O)[C@@H](NC(=O)OCc1ccccc1)C(C)C` (stereo not given in full) gave a pIC50 in [1] of 8.30. This compound also registered an ED50 in [2] greater than 44 µM. The CD50 in experiment [3] was 44 µM.
